The values that follow come from patent US7956074B2, “Aryl-isoxazolo-4-yl-oxadiazole derivatives” (Hoffman-La Roche Inc., priority 2005, dated 2011).

This experiment concerns the target T1, GABA A receptor α5β3γ2 (Homo sapiens, UniProt P18507+P31644).
T1 construct: expressed in transfected cells; host or cells: HEK293 cells, transiently transfected; membranes prepared
Nature of the experiment: [3H]flumazenil competition binding, human GABA A α5β3γ2. The conditions noted are these: competition for [3H]flumazenil (0.5 nM) binding, HEK293 cells expressing human (transiently transfected) α5β3γ2; means of two determinations; read-out: Ki[nM] hα5. In a few lines:
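HEK293 membranes expressing GABA-A receptors (human transiently, rat stably transfected) were used for [3H]flumazenil competition in Krebs-tris buffer, pH 7.5. Incubation ran 1 h at 4 °C to equilibrium, followed by filtration and scintillation counting. Ki values are means of two determinations.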

Consider `COc1cc(N2CCOCC2)ccc1-c1nnc(-c2c(-c3ccc(C(F)(F)F)cc3)noc2C)o1` [Example 103, 4-(3-Methoxy-4-{5-[5-methyl-3-(4-trifluoromethyl-phenyl)-isoxazol-4-yl]-[1,3,4]oxadiazol-2-yl}-phenyl)-morpholine], for which the inhibition constant Ki stood at 47.6 nM.
The same measure for `COc1cc(NC(=O)C2CC2)ccc1-c1nnc(-c2c(-c3ccccc3)noc2C)o1` [Example 16, Cyclopropanecarboxylic acid {3-methoxy-4-[5-(5-methyl-3-phenyl-isoxazol-4-yl)-[1,3,4]oxadiazol-2-yl]-phenyl}-amide]: 7.7 nM; for `COc1cc(N2CCOCC2)ccc1-c1nnc(-c2c(-c3cccs3)noc2C)o1` [Example 110, 4-{3-Methoxy-4-[5-(5-methyl-3-thiophen-2-yl-isoxazol-4-yl)-[1,3,4]oxadiazol-2-yl]-phenyl}-morpholine]: 19.5 nM; for `Cc1onc(-c2ccccc2)c1-c1nnc(-c2cc(F)c(F)cc2F)o1` [Example 118, 2-(5-Methyl-3-phenyl-isoxazol-4-yl)-5-(2,4,5-trifluoro-phenyl)-[1,3,4]oxadiazole]: 149 nM.
Regarding `Cc1onc(-c2ccccc2)c1-c1nnc(-c2cccc3[nH]cnc23)o1` [Example 125, 4-[5-(5-Methyl-3-phenyl-isoxazol-4-yl)-[1,3,4]oxadiazol-2-yl]-1H-benzoimidazole], the inhibition constant Ki amounted to 26.8 nM.
The same measure for `COc1cc(-n2ccnn2)ccc1-c1nnc(-c2c(-c3ccccc3)noc2C)o1` [Example 86, 2-(2-Methoxy-4-[1,2,3]triazol-1-yl-phenyl)-5-(5-methyl-3-phenyl-isoxazol-4-yl)-[1,3,4]oxadiazole]: 4.8 nM; for `COc1cc(N)ccc1-c1nnc(-c2c(-c3ccccc3)noc2CCC2CC2)o1` [Example 20, 4-{5-[5-(2-Cyclopropyl-ethyl)-3-phenyl-isoxazol-4-yl]-[1,3,4]oxadiazol-2-yl}-3-methoxy-phenylamine]: 20.5 nM.
In the case of `COc1cc(N2CCNCC2)ccc1-c1nnc(-c2c(-c3ccccc3)noc2C)o1` [Example 66, 1-{3-Methoxy-4-[5-(5-methyl-3-phenyl-isoxazol-4-yl)-[1,3,4]oxadiazol-2-yl]-phenyl}-piperazine] it was 13.4 nM.
The same measure for `Cc1ccccc1-c1nnc(-c2c(-c3ccccc3)noc2C)o1` [Example 2, 2-(5-Methyl-3-phenyl-isoxazol-4-yl)-5-o-tolyl-[1,3,4]oxadiazole]: 234 nM.
On to `COc1cc(NC=O)ccc1-c1nnc(-c2c(-c3ccccc3)noc2C)o1` [Example 134, N-{3-Methoxy-4-[5-(5-methyl-3-phenyl-isoxazol-4-yl)-[1,3,4]oxadiazol-2-yl]-phenyl}-formamide], for which the inhibition constant Ki was 5.8 nM.
The same measure for `Cc1onc(-c2ccccc2)c1-c1nnc(-c2cccnc2Cl)o1` [Example 6, 2-Chloro-3-[5-(5-methyl-3-phenyl-isoxazol-4-yl)-[1,3,4]oxadiazol-2-yl]-pyridine]: 146 nM.
